What all share (test): NCI tumour cell line growth inhibition, 48 h
For experiment [1], the system named is HOP-92.
In experiment [2] the test system is HCC 2998.
The subject of experiment [3] is M14.
The subject of experiment [4] is MDA-N.
The subject of experiment [5] is UACC-257.
Experiment [6] deals with T47D.
The test system of experiment [7] is HCT-15.
In experiment [8] the test system is ACHN.
Experiment [9] deals with Hs-578T.
In experiment [10] the test system is SF-539.
Experiment [11] has as its system HCT-116.
Experiment [12] relates to NCI-H226.
The subject of experiment [13] is K562.
In experiment [14] the test system is CCRF-CEM.
Experiment [15] has as its system CAKI-1.
Experiment [16] relates to SW-620.
The test system of experiment [17] is SR.
In experiment [18] the test system is SK-OV-3.
The test system of experiment [19] is NCI/ADR-RES.
Experiment [20] deals with LOX IMVI.

The structures appear in SMILES notation.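 How tested: cells in 96-well plates exposed to compound for 48 hours at five concentrations. GI50 is the concentration that inhibits growth by half.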 Activity calls are given as the source filed them. Cut-off read from the data, not from the text of the source: active = GI50 up to about 1.1 µM and inactive = higher.

As to `CCCCOc1ccc(/C=C/C2=[N+](CCO)CCO2)cc1`, the GI50 in experiment [1] is 44.3 µM (inactive); in experiment [2], 22.5 µM (inactive); in experiment [3] it was 76.7 µM (inactive); in [4], > 100 µM (inactive); in experiment [5], > 100 µM (inactive); in experiment [6] it was 30.5 µM (inactive). Also, the GI50 in experiment [7] is 51.9 µM; in experiment [8], 91.6 µM (inactive); in [9] it was > 100 µM (inactive); in experiment [10] it was 21.7 µM (inactive); in experiment [11] it was 39.8 µM (inactive); in experiment [12] it was 27.2 µM (inactive). The GI50 was 24 µM (inactive) in experiment [13]; 30.4 µM (inactive) in [14]; 67.5 µM (inactive) in experiment [15]; 33.6 µM (inactive) in experiment [16]; 38 µM (inactive) in experiment [17]; > 100 µM (inactive) in experiment [18]. The GI50 in [19] is 78 µM (inactive).

`COc1cc(/C=C2\N=C(c3ccccc3)N(/N=C/c3cc4cc(C)ccc4nc3Cl)C2=O)cc(OC)c1OC`: the GI50 in [1] is 54.6 µM (inactive); in experiment [2], 18.8 µM (inactive); in experiment [3], 39.4 µM (inactive); in experiment [20], 32.1 µM (inactive); in experiment [4], 21 µM (inactive); in experiment [5], 46.5 µM (inactive). Also, the GI50 was 18 µM (inactive) in experiment [6]; 32.4 µM in [7]; 34.2 µM (inactive) in [8]; 29.4 µM (inactive) in experiment [9]; 23.4 µM (inactive) in experiment [10]; 33.7 µM (inactive) in experiment [11]. The GI50 in experiment [13] is 35 µM (inactive); in experiment [15], 61.7 µM (inactive); in experiment [16] it was 41.2 µM (inactive); in experiment [17], 19.4 µM (inactive); in experiment [18], 59.8 µM (inactive); in experiment [19] it was 28 µM (inactive).

As to `COc1cc2c(cc1OC)CC(N=[N+]=[N-])c1cc(OC)c(OC)cc1/C=C\2` (centres undefined), the GI50 in [1] was 12.9 µM (inactive); in experiment [2], 81.7 µM (inactive); in experiment [3] it was 24.2 µM (inactive); in [20] it was 40.6 µM (inactive); in experiment [4], 5.75 µM (inactive); in experiment [5] it was 46 µM (inactive). For the same molecule, the GI50 in experiment [6] was 75 µM (inactive); in experiment [7] it was 40.1 µM; in experiment [8], 59 µM (inactive); in [9], 24 µM (inactive); in [10], 39.9 µM (inactive); in experiment [11], 28.7 µM (inactive). Moreover, the GI50 in experiment [12] was 3.18 µM (inactive); in [13] it was 27.2 µM (inactive); in experiment [15] it was 21 µM (inactive); in [16], 83.6 µM (inactive); in [17], > 100 µM (inactive); in experiment [18] it was 38.5 µM (inactive). The GI50 in experiment [19] was 25.2 µM (inactive).

Take `C[C@H](N)C(=O)N[C@@H]1[C@H]2C(=C(O)C[C@@H](O)[C@@H]2O)C(=O)O[C@]1(C)C(Cl)Cl` [BACTOBOLIN]: the GI50 is 0.111 µM (active) in [1]; 0.164 µM (active) in experiment [2]; 0.128 µM (active) in [3]; 0.0946 µM (active) in [20]; 0.105 µM (active) in [4]; 0.378 µM (active) in experiment [5]. Moreover, the GI50 in experiment [6] was 0.209 µM (active); in experiment [7], 0.597 µM; in experiment [8] it was 0.176 µM (active); in [9] it was 0.125 µM (active); in experiment [10], 0.229 µM (active); in [11], 0.145 µM (active). The GI50 is 0.195 µM (active) in experiment [12]; 0.166 µM (active) in experiment [15]; 0.145 µM (active) in [16]; 0.0776 µM (active) in experiment [17]; 0.271 µM (active) in experiment [18]; 3.36 µM (inactive) in experiment [19].

Turning to `CCOC(=O)CN1C(=O)c2c(c(C)n(-c3ccccc3)c2C)C1=O`, the GI50 in experiment [1], in experiment [2], in experiment [3], in experiment [4], in experiment [5] and in [6] was > 100 µM (inactive) each time. The GI50 in [7] was over 100 µM; in experiment [8], > 100 µM (inactive); in [9], > 100 µM (inactive); in experiment [10], 91.2 µM (inactive); in experiment [11] it was > 100 µM (inactive); in experiment [12], > 100 µM (inactive). Besides, the GI50 in [13], in [14], in [15], in experiment [16], in experiment [17] and in [18] was > 100 µM (inactive) each time. Also, the GI50 in experiment [19] is > 100 µM (inactive).

In the case of `Cc1cc(Nc2ccc(/N=N/c3ccc(O)c4ncccc34)cc2)nc(C)n1`, the GI50 in experiment [1] was 9.75 µM (inactive); in experiment [3], 12.6 µM (inactive); in experiment [20], 6.52 µM (inactive); in [4], 6.62 µM (inactive); in experiment [5], 16.6 µM (inactive); in [6], 6.01 µM (inactive). Further, the GI50 was 4.37 µM in experiment [7]; 8.22 µM (inactive) in experiment [8]; 7.03 µM (inactive) in [9]; 3.99 µM (inactive) in experiment [10]; 8.93 µM (inactive) in experiment [11]; 18.3 µM (inactive) in experiment [12]. The GI50 in [13] is 3.78 µM (inactive); in [14] it was 2.75 µM (inactive); in experiment [15], 25.7 µM (inactive); in experiment [16] it was 13.5 µM (inactive); in experiment [17] it was 6.34 µM (inactive); in experiment [18], 23.9 µM (inactive). For the same molecule, in experiment [19], the GI50 is 6.28 µM (inactive).

`Nc1cc(N)c(/N=N/c2cccc3c(S(=O)(=O)O)cccc23)cc1/N=N/c1cc([N+](=O)[O-])ccc1O`: the GI50 in [1] is 35.6 µM (inactive); in experiment [2] it was 23.2 µM (inactive); in experiment [3], 26.1 µM (inactive); in [20] it was 13.6 µM (inactive); in experiment [4], 46.9 µM (inactive); in experiment [5] it was 26.3 µM (inactive). Also, the GI50 in [6] is 38.8 µM (inactive); in experiment [7] it was 22.1 µM; in experiment [8], 22.2 µM (inactive); in [9], 36.8 µM (inactive); in [10], 38 µM (inactive); in experiment [11], 32.7 µM (inactive). Also, the GI50 in [13] is 38.7 µM (inactive); in experiment [15] it was 23.6 µM (inactive); in experiment [16] it was 28.8 µM (inactive); in [17] it was 13.5 µM (inactive); in experiment [18], 59.7 µM (inactive); in experiment [19] it was 21.9 µM (inactive).

In the case of `CC1OC(OC2C(CO)OC(O[C@H]3CC[C@@]4(C)C(=CC[C@H]5[C@@H]6C[C@@H]7O[C@](O)(CC[C@H](CO)COC8OC(CO)C(O)C(O)C8O)[C@@H](C)[C@@H]7[C@@]6(C)CC[C@@H]54)C3)C(OC3OC(C)C(O)C(O)C3O)C2O)C(O)C(O)C1O` (some centres undefined), the GI50 in experiment [1], in experiment [2], in [3], in experiment [20], in experiment [4] and in experiment [5] was > 100 µM (inactive) each time. Besides, the GI50 in experiment [6] was > 100 µM (inactive); in [7], 54 µM; in [8], > 100 µM (inactive); in experiment [9] it was > 100 µM (inactive); in [10], > 100 µM (inactive); in [11], > 100 µM (inactive). For the same molecule, the GI50 in experiment [13], in experiment [14], in experiment [15], in experiment [16], in [17] and in experiment [18] was > 100 µM (inactive) in each case. Moreover, the GI50 in experiment [19] is 91.4 µM (inactive).
